{
  "source": "paper PMC11050443",
  "about": "“Discovery of Strong 3-Nitro-2-Phenyl-2H-Chromene Analogues as Antitrypanosomal Agents and Inhibitors of Trypanosoma cruzi Glucokinase” (International Journal of Molecular Sciences, 2024)",
  "key": {"[1]": {"tested_on": "T. cruzi", "set-up": "method as in PMID 26778112", "settings": "cited from earlier work"}, "[2]": {"target": "T1, TcGlcK (Trypanosoma cruzi glucokinase) (Trypanosoma cruzi, UniProt Q4E4E1)", "T1 construct": "made in house; host or cells: Escherichia coli BL21(DE3)", "T1 sequence (Q4E4E1 1-376)": "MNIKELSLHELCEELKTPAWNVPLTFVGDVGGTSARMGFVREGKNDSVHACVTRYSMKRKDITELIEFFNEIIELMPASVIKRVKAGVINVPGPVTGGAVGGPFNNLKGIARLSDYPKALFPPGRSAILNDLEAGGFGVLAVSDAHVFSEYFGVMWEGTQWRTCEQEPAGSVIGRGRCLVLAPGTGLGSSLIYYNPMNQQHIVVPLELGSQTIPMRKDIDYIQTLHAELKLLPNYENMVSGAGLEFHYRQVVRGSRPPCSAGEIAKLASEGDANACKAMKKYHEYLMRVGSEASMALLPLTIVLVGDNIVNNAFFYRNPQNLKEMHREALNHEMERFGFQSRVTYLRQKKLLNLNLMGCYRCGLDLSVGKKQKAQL", "experiment": "TcGlcK primary screening assay (LmG6PDH-coupled, Dixon plots)", "format": "biochemical", "settings": "Dixon plots; 0.4, 0.6, 0.8 mM D-glucose; N = 1 unless marked, N = 3 for compounds 1, 4, 9, 11", "description": "A primary screening assay was carried out for TcGlcK with the 3-nitro-2-phenyl-2H-chromene analogues. The data was subsequently processed for respective Ki values in order to assess enzyme inhibition. […] The primary screening assay was performed with the substrate D-glucose in various concentrations of 0.4 mM, 0.6 mM, and 0.8 mM to produce Dixon plots with different slopes. Each of the 3-nitro-2-phenyl-2H-chromene analogues were originally prepared at a working concentration of 1.0 mM and were dissolved in 100% DMSO. The final assay concentrations of the analogue compounds (inhibitors) ranged from 0.0–10.0 μM. The analogue compounds were pre-incubated with the enzyme system a minimum of 10 min prior to the initiation of the assay. The enzymatic reaction was carried out at room temperature (22 °C; temperature optimum) using ATP to initiate the reaction, and termination was performed after 120 s (time optimum) by stopping the reaction with the addition of an EDTA (pH 8.0) solution, to a final concentration of 100 mM. TcGlcK enzyme activity was analyzed for the production of NADPH. Each completed reaction mixture was added into a black, round-bottom microplate and scanned by a VANTAstar-F multi-mode microplate reader (BMG LABTECH, Inc.; Cary, NC, USA). The instrument was set to fluorescence mode and the wavelengths (λex = 340 nm; λem = 485 nm) were set to observe the relative fluorescence units of NADPH [40]. The enzyme-inhibition kinetics Ki value determination and the mode of inhibition was determined using the Cornish–Bowden Dixon Plot analysis method."}, "[3]": {"target": "T2, LmG6PDH (Leuconostoc mesenteroides glucose-6-phosphate dehydrogenase) (Leuconostoc mesenteroides, UniProt P11411)", "T2 construct": "purchased Worthington Biochemical Corporation", "T2 sequence (P11411 whole entry)": "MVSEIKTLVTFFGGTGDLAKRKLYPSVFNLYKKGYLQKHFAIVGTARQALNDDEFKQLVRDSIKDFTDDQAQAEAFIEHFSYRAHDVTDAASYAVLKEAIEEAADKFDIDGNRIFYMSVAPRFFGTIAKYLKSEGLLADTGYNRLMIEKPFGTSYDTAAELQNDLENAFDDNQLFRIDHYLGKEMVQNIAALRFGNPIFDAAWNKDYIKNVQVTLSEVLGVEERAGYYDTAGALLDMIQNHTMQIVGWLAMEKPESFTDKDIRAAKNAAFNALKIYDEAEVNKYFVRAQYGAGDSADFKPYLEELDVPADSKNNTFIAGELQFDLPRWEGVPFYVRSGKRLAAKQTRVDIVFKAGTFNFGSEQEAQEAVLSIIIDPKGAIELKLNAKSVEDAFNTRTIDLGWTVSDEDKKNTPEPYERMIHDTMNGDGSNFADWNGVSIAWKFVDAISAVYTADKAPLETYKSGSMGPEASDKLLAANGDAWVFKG", "experiment": "Confirmatory assay on the LmG6PDH enzyme-coupled system", "format": "biochemical", "settings": "N = 4", "description": "Two criteria were examined in order to certify on-target confirmed hits: (a) the assessment of potential inhibition to the LmG6PDH enzyme-coupled system, and (b) the precision of the assay (per inhibitor), performed in quadruplicate (N = 4). Compounds were tested in quadruplicate in a black, round-bottom 96-well microplate in which wells were filled with a buffered solution (50 mM triethanolamine, 150 mM NaCl) amounting to a total volume of 206.5 μL that contained the following reagents at final assay concentrations: LmG6PDH (6.1 μg/mL), NADP^+ (0.54 mM), ATP (0.54 mM), MgCl2 (6.9 mM), DMSO (1.0% by vol.), D-glucose-6-phosphate (0.80 mM), and a 3-nitro-2-phenyl-2H-chromene analogue (20.0 μM). The analogue compounds were pre-incubated with the enzyme system a minimum of 10 min prior to the initiation of the assay. The enzymatic reactions were initiated and terminated similarly as described in the TcGlcK primary screen (vide supra). The production of NADPH was monitored using the VANTAstar-F multi-mode microplate reader set to fluorescent mode, λex = 340 nm and λem = 485 nm, over a 120-s timeframe."}, "[4]": {"tested_on": "T. brucei brucei (427 strain) bloodstream form", "experiment": "In vitro T. brucei biological assay (Alamar blue)", "format": "cell-based, Trypanosoma brucei brucei", "settings": "Trypanosoma brucei, 48 h, T. brucei brucei 427 strain bloodstream form growth inhibition; N = 3", "description": "The in vitro cell culture preparation of T. brucei brucei (427 strain) trypomastigote bloodstream form followed by treatment with inhibitors has recently been described by Ajayi and colleagues. The 3-nitro-2-phenyl-2H-chromene compounds (inhibitors) that were prepared as 10.0 mM stock solutions in 100% DMSO were thawed from −80 °C to room temperature. HMI-9 medium [Iscove’s modification of DMEM supplemented with 10% FBS, 10% serum plus (SAFC), 0.05 mM bathocuproinesulfonate, 1.5 mM L-cysteine, 1.0 mM hypoxanthine, 0.2 mM β-mercaptoethanol, 0.16 mM thymidine, and 1.0 mM pyruvate] was prepared. In a sterile, round-bottom, 96-well microplate, 100 μL of HMI-9 medium was added to each well. A volume of 2.0 μL of a given compound plus a volume of 98.0 μL of fresh media were both added to a well in the first row of the 96-well microplate; this was performed for each compound to be tested. Solutions were mixed with a micropipette followed by transfer of 100 μL to the next row and repeated. The compound solutions ranged from 0.0781–10.0 μM and this was accomplished by serial dilution using a 2-fold dilution. T. brucei parasites were centrifuged for 10 min at 900× g (without centrifuge breaks). The media was carefully discarded by aspiration and the parasites were resuspended in warm media. Parasites were counted in a Newbauer chamber. Afterwards, the parasites were diluted to 50,000 cells/mL (5000 cells/well) and 100 μL was added to each well of the 96-well microplate using a multichannel pipette. After 48 h, 20.0 μL of Alamar blue was added to each well and the plate was placed into an incubator for 4 h at 37 °C. Fluorescence readings were measured using a Victor Nivo multimode microplate reader (PerkinElmer, Inc.; Shelton, CT, USA) at λex = 530 nm and λem = 590 nm. All measurements were performed in triplicate and IC50 determinations for percent growth inhibition were carried out using GraphPad Prism 10.0. The detergent SDS was used as a positive control and its final solution concentration was 0.5%. Three control experiments were performed, as follows: (a) parasites alone, (b) parasites and 0.5% SDS, and (c) the medium alone."}, "[5]": {"tested_on": "NIH-3T3 fibroblasts", "experiment": "In vitro cytotoxicity assay of mammalian NIH-3T3 fibroblasts (Alamar blue)", "format": "cell-based", "settings": "NIH-3T3 fibroblast growth inhibition, host cell toxicity; 4 days; N = 3", "description": "The in vitro cell culturing of mammalian NIH-3T3 fibroblasts following treatment with inhibitors to assess for cytotoxicity has previously been described. DMEM lacking phenol red and supplemented with 2% FBS and 1% PSG was warmed up. NIH-3T3 cells were trypsinized, as described in the cell culture protocol. When cells became detached, they were harvested in DMEM lacking phenol red and including 2% FBS and 1% PSG. The cells were centrifuged at 1000 rpm for 5 min, the medium was discarded, and the cells were resuspended in fresh DMEM lacking phenol red and including 2% FBS and 1% PSG. The cells were centrifuged at 1000 rpm for 5 min, resuspended in the medium, counted, and diluted to 500,000 cells/mL. Dilution was accomplished by transferring the stock number of cells into a sterile basin and 100 μL of cells was added to each well of a transparent, sterile, flat-bottom, 96-well microplate (50,000 cells/well) using a multichannel pipette. The plate was placed into the incubator for 3 h to allow cells to attach. The 3-nitro-2-phenyl-2H-chromene compounds were thawed from −80 °C to room temperature. The compounds were prepared as 10.0 mM stock solutions in 100% DMSO. A volume of 2.0 μL of a given compound plus a volume of 98.0 μL of fresh media were both added to a well in the first row of the 96-well microplate; this was performed for each compound to be tested. The solutions were mixed with a micropipette, followed by the transfer of 100 μL to the next row and repeated. The compound solutions ranged from 0.0139–30.3 μM and this was accomplished by serial dilution using a 3-fold dilution. After incubation for 4 days, 10.0 μL of Alamar blue was added to each well. Absorbance readings were measured using a Victor Nivo multimode microplate reader (PerkinElmer, Inc.; Shelton, CT, USA) at λ = 590 nm. All measurements were performed in triplicate and TC50 determinations for percent growth inhibition were carried out using GraphPad Prism 10.0. The final volume per well of cells and a given compound was 100 μL and this volume became 110 μL after the addition of Alamar blue. The detergent SDS was used as a positive control and its final solution concentration was 0.1%. Three controls were carried out, as follows: (a) NIH-3T3 cells alone, (b) perished NIH-3T3 cells (NIH-3T3 cells in the presence of 0.1% SDS), and (c) the medium alone."}, "[6]": {"target": "TcGlcK", "set-up": "method as in PMID 26778112", "settings": "competitive inhibitor, previous study; cited from earlier work"}},
  "note": "Read-outs that look alike come from different tables or passages of the source.",
  "data": [
    {"smiles": "O=C(Cn1ccnc1[N+](=O)[O-])NCc1ccccc1", "note": "[Benznidazole, benznidazole]", "values": [
      {"measurement": "IC50", "setting": "[1]; benznidazole control, previous work, read-out: T. cruzi IC50", "value": "1.12 ± 0.095", "unit": "µM"}
    ]},
    {"smiles": "O=[N+]([O-])C1=Cc2ccccc2OC1c1ccccc1Cl", "note": "(centres unmarked) [Compound 12, 2-(2-Chlorophenyl)-3-nitro-2H -chromene]", "values": [
      {"measurement": "Ki", "setting": "[2]", "value": 14, "unit": "µM"},
      {"measurement": "LmG6PDH inhibitory effect (in words)", "setting": "[3]; 20 µM compound", "value": "did not observe any significant LmG6PDH inhibitory effects"},
      {"measurement": "inhibition at 20 µM", "setting": "[3]; percentage of inhibition at 20 µM compound in comparison to controls, read-out: LmG6PDH Inh20", "value": "8.6 ± 0.1", "unit": "%"},
      {"measurement": "IC50", "setting": "[4]", "value": "1670 ± 60", "unit": "nM"},
      {"measurement": "NIH-3T3 TC50", "setting": "[5]", "value": "10.9 ± 1.55", "unit": "µM"}
    ]},
    {"smiles": "O=C(N[C@H]1[C@@H](O)[C@H](O)C(CO)O[C@@H]1O)OCc1ccccc1", "note": "(some centres unmarked) [carboxybenzyl glucosamine]", "values": [
      {"measurement": "Ki", "setting": "[6]", "value": 710, "unit": "nM"},
      {"measurement": "IC50", "setting": "[1]; previous study, read-out: in vitro percent-growth-inhibition IC50 in T. cruzi culture", "value": 48.7, "unit": "µM"}
    ]}
  ]
}
